# Test results published in patent publication US8513236B2 (Laurus Labs Private Limited, priority 2010, dated 2013).
# Entries after “also recorded” stand apart in the source; their conditions may differ.
# Assays:
# [1] = Relative humidity stability at ambient temperature, analyzed by XRPD; assay type: physicochemical
# Text: Upon completion of the duration allowed, the samples were immediately analyzed by XRPD.
# [2] = Slurrying in water, resulting solid form; assay type: physicochemical; conditions: for result of slurrying in water: three days
# hyperglycemic rats = conditions: cited from earlier work
# [3] = cited from earlier work
# [4] = cited from earlier work; remark: listed apart in the source
# cancer cell lines = conditions: in vitro; cited from earlier work
# [5] = Intrinsic dissolution in 900 mL water at ambient conditions (attempted); assay type: physicochemical; conditions: after 30 minutes
# Description: Intrinsic dissolution in 900 mL water at ambient conditions was also attempted. […] Therefore, a concentration vs. time and intrinsic dissolution rate value were unobtainable at these conditions.
compound,measurement,setting,value
Cn1c(=O)c2c(ncn2C)n(C)c1=O [caffeine],Results,"[1]; 75% RH, 1 week",caffeine anhydrous
same,Results,"[1]; 75% RH, 4 weeks",does not display signs of conversion; also recorded: caffeine anhydrous
same,Results,"[1]; 75% RH, 1 day",caffeine anhydrous
same,Results,"[1]; 75% RH, 3 days",caffeine anhydrous
same,Results,"[1]; 94% RH, 1 week (7 days)",caffeine hydrate
same,Results,"[1]; 94% RH, 4 weeks",caffeine hydrate
same,Results,"[1]; 94% RH, 1 day",caffeine anhydrous
same,Results,"[1]; 94% RH, 3 days",caffeine anhydrous/caffeine hydrate
same,conversion to hydrate,"[1]; 94% RH, between one and three days",partial conversion
same,Results,"[1]; 98% RH, 1 week",caffeine hydrate
same,Results,"[1]; 98% RH, 4 weeks",caffeine hydrate
same,Results,"[1]; 98% RH, 1 day",caffeine hydrate
same,Results,"[1]; 98% RH, 3 days",caffeine hydrate
same,conversion to hydrate,"[1]; 98% RH, in less than one day",converts to caffeine hydrate
"COc1cc(/C=C/c2ccc(O)cc2)cc(OC)c1.Cn1c(=O)c2c(ncn2C)n(C)c1=O [cocrystal 1 (Form I), pterostilbene:caffeine]",Results,"[1]; 75% RH, 1 week","cocrystal 1 (Form I), no caffeine hydrate"
same,Results,"[1]; 75% RH, 1 week, additional stress at 98% RH","cocrystal 1 (Form I), no caffeine hydrate"
same,Results,"[1]; 75% RH, 4 weeks","cocrystal 1 (Form I), no caffeine hydrate"
same,Results,"[1]; 75% RH, 1 day","cocrystal 1 (Form I), no caffeine hydrate"
same,Results,"[1]; 75% RH, 1 day, additional stress at 98% RH","cocrystal 1 (Form I), no caffeine hydrate"
same,Results,"[1]; 75% RH, 3 days","cocrystal1 (Form I), no caffeine hydrate"
same,Results,"[1]; 94% RH, 1 week (7 days)","cocrystal 1 (Form I), no caffeine hydrate"
same,Results,"[1]; 94% RH, 4 weeks","cocrystal 1 (Form I), no caffeine hydrate"
same,Results,"[1]; 94% RH, 1 day","cocrystal 1 (Form I), no caffeine hydrate"
same,Results,"[1]; 94% RH, 3 days","cocrystal 1 (Form I), no caffeine hydrate"
same,Results,"[1]; 94% RH, 7 days, additional stress at 98% RH, 4 weeks","cocrystal 1 (Form I), no caffeine hydrate"
same,Results,"[2]; slurry, 2 days","cocrystal 1 (Form I), no caffeine hydrate"
same,result of slurrying in water,[2],precipitation of pterostilbene
"COc1cc(/C=C/c2ccc(O)cc2)cc(OC)c1.Cn1c(=O)c2c(ncn2C)n(C)c1=O [cocrystal 1, pterostilbene:caffeine]",Results,"[1]; 75% RH, 4 weeks",no dissociation
same,Results,"[1]; 94% RH, 4 weeks",no dissociation
same,Results,"[1]; 98% RH, 4 weeks",no dissociation
CN(C)C(=N)N=C(N)N [metformin],decreased plasma glucose levels,hyperglycemic rats,48%
"COc1cc(/C=C/c2ccc(O)cc2)cc(OC)c1 [pterostilbene, trans-3,5-dimethoxy-4′-hydroxystilbene]",solubility in water,[3],poor solubility in water
same,Results,"[1]; 75% RH, 4 weeks",pterostilbene (Form I)
same,Results,"[1]; 94% RH, 4 weeks",pterostilbene (Form I)
same,Results,"[1]; 98% RH, 4 weeks",pterostilbene (Form I)
same,bioavailability,[4],poor bioavailability
same,cytotoxic activity against cancer cell lines,cancer cell lines,cytotoxic activity
pterostilbene:carbamazepine [cocrystal 2],result of slurrying in water,[2],stable
pterostilbene:glutaric acid [cocrystal 3],Results,"[1]; 75% RH, 4 weeks",no dissociation
same,Results,"[1]; 94% RH, 4 weeks",no dissociation
same,Results,"[1]; 98% RH, 4 weeks",no dissociation
same,"XRPD results, intrinsic dissolution",[5],crystalline pterostilbene
same,XRPD results when slurrying in water at ambient,[2]; after 5 minutes,crystalline pterostilbene
